Experimental data published in ChEMBL document CHEMBL3400067, “Synthesis, antinociceptive and anti-inflammatory effects of porphyrins” (Bioorg Med Chem, 2015).
Calls of active or inactive are those of the source. The calls are words filed in the database; no cut-off is given here.

How the values were obtained:
Mus musculus [1] = test: Anti-arthritic activity in CD-1 mouse assessed as inhibition of carrageenan-kaolin-induced arthritis at 200 mg/kg, po for 8 days relative to vehicle treated control; assay type: functional; settings: CD-1, 192 h
Mus musculus [2] = test: Anti-arthritic activity against carrageenan-kaolin-induced arthritis CD-1 mouse model assessed as decrease in spleen index at 200 mg/kg, po for 8 days relative to vehicle treated control; assay type: functional; settings: CD-1, Spleen, 192 h
Mus musculus [3] = test: Anti-arthritic activity against carrageenan-kaolin-induced arthritis CD-1 mouse model assessed as decrease in TNF-alpha level in serum at 200 mg/kg, po for 8 days relative to vehicle treated control; assay type: functional
Mus musculus [4] = test: Anti-arthritic activity against carrageenan-kaolin-induced arthritis CD-1 mouse model assessed as decrease in IL-1beta level in serum at 200 mg/kg, po for 8 days relative to vehicle treated control; assay type: functional
Mus musculus [5] = test: Anti-arthritic activity against carrageenan-kaolin-induced arthritis CD-1 mouse model assessed as decrease in IL-6 level in serum at 200 mg/kg, po for 8 days relative to vehicle treated control; assay type: functional
Mus musculus [6] = test: Antiinflammatory activity against carrageenan-kaolin-induced arthritis CD-1 mouse model assessed as decrease in PGE2 level in serum at 200 mg/kg, po for 8 days relative to vehicle treated control; assay type: functional; settings: CD-1, Serum, 192 h
Mus musculus [7] = test: Antiinflammatory activity against carrageenan-kaolin-induced arthritis CD-1 mouse model assessed as decrease in NO level in serum at 200 mg/kg, po for 8 days relative to vehicle treated control; assay type: functional; settings: CD-1, Serum, 192 h
[8] = Antiinflammatory activity against Wistar rat erythrocytes assessed as inhibition of heat-induced hemolysis after 15 mins by membrane stabilizing activity assay; assay type: functional, cell-based; settings: erythrocyte
Mus musculus [9] = test: Antinociceptive activity against CD-1 mouse assessed as licking of hind paw or jumping at 100 mg/kg, po after 90 mins; assay type: functional; settings: CD-1, 1.5 h
Mus musculus [10] = test: Antinociceptive activity in CD-1 mouse assessed as licking time during phase 1 at 50 to 200 mg/kg, po administered 1 hr prior to formalin-challenge; assay type: functional, organism-based
Mus musculus [11] = test: Antiinflammatory activity in CD-1 mouse ear edema model assessed as reduction in TPA-induced edema size at 2 mg/ear, topically administered 30 mins prior to TPA-challenge measured after 6 hrs relative to control; assay type: functional
Mus musculus [12] = test: Antiinflammatory activity in CD-1 mouse ear edema model assessed as reduction in TPA-induced edema size at 200 mg/kg, po administered 30 mins prior to TPA-challenge for every 48 hrs for 10 days relative to vehicle treated control; assay type: functional; settings: CD-1, Ear
Mus musculus [13] = test: Anti-arthritic activity in po dosed CD-1 mouse assessed as inhibition of carrageenan-kaolin-induced arthritis at treated for 8 days relative to vehicle treated control; assay type: functional, organism-based; settings: TDE = time-dependent effect
Mus musculus [14] = test: Anti-arthritic activity in CD-1 mouse assessed as inhibition of carrageenan-kaolin-induced arthritis at 1 mg/kg, po for 8 days relative to vehicle treated control; assay type: functional; settings: CD-1, 192 h
Mus musculus [15] = test: Anti-arthritic activity against carrageenan-kaolin-induced arthritis CD-1 mouse model assessed as decrease in spleen index at 1 mg/kg, po for 8 days relative to vehicle treated control; assay type: functional; settings: CD-1, Spleen, 192 h
Mus musculus [16] = test: Anti-arthritic activity against carrageenan-kaolin-induced arthritis CD-1 mouse model assessed as decrease in TNF-alpha level in serum at 1 mg/kg, po for 8 days relative to vehicle treated control; assay type: functional
Mus musculus [17] = test: Anti-arthritic activity against carrageenan-kaolin-induced arthritis CD-1 mouse model assessed as decrease in IL-1beta level in serum at 1 mg/kg, po for 8 days relative to vehicle treated control; assay type: functional
Mus musculus [18] = test: Anti-arthritic activity against carrageenan-kaolin-induced arthritis CD-1 mouse model assessed as decrease in IL-6 level in serum at 1 mg/kg, po for 8 days relative to vehicle treated control; assay type: functional
Mus musculus [19] = test: Antiinflammatory activity against carrageenan-kaolin-induced arthritis CD-1 mouse model assessed as decrease in PGE2 level in serum at 1 mg/kg, po for 8 days relative to vehicle treated control; assay type: functional; settings: CD-1, Serum, 192 h
Mus musculus [20] = test: Antiinflammatory activity against carrageenan-kaolin-induced arthritis CD-1 mouse model assessed as decrease in NO level in serum at 1 mg/kg, po for 8 days relative to vehicle treated control; assay type: functional; settings: CD-1, Serum, 192 h
Mus musculus [21] = test: Antiinflammatory activity in CD-1 mouse ear edema model assessed as reduction in TPA-induced edema size at 8 mg/kg, po administered 30 mins prior to TPA-challenge for every 48 hrs for 10 days relative to vehicle treated control; assay type: functional; settings: CD-1, Ear
Mus musculus [22] = test: Antiinflammatory activity in po dosed CD-1 mouse ear edema model assessed as reduction in TPA-induced edema size administered 30 mins prior to TPA-challenge for every 48 hrs for 10 days relative to vehicle treated control; assay type: functional, organism-based

SMILES: Brc1ccc(-c2c3nc(c(-c4ccc(Br)cc4)c4ccc([nH]4)c(-c4ccc(Br)cc4)c4nc(c(-c5ccc(Br)cc5)c5ccc2[nH]5)C=C4)C=C3)cc1
- inhibition in vivo at 200 mg/kg (Mus musculus [1]): 27%
- inhibition in vivo at 200 mg/kg (Mus musculus [2]): 17%
- fold change (FC) (Mus musculus [3]): 1.1
- fold change (FC) (Mus musculus [4]): 1.6
- fold change (FC) (Mus musculus [5]): 1.3
- inhibition in vivo at 200 mg/kg (Mus musculus [6]): 32%
- inhibition in vivo at 200 mg/kg (Mus musculus [7]): 36%
- EC50 [8]: 342 µM
- inhibition in vivo at 100 mg/kg (Mus musculus [9]): 32%
- Activity (Mus musculus [10]): Active
- inhibition (INH) (Mus musculus [11]): 67%
- inhibition in vivo at 200 mg/kg (Mus musculus [12]): 23%
- Activity (Mus musculus [13]): tde

SMILES: COc1ccc2cc([C@H](C)C(=O)O)ccc2c1 [NAPROXEN]
- EC50 [8]: 756 µM
- inhibition in vivo at 100 mg/kg (Mus musculus [9]): 36%

SMILES: CN(Cc1cnc2nc(N)nc(N)c2n1)c1ccc(C(=O)N[C@@H](CCC(=O)O)C(=O)O)cc1 [METHOTREXATE]
- inhibition in vivo at 1 mg/kg (Mus musculus [14]): 49%
- inhibition in vivo at 1 mg/kg (Mus musculus [15]): 38%
- fold change (FC) (Mus musculus [16]): 2.1
- fold change (FC) (Mus musculus [17]): 2
- fold change (FC) (Mus musculus [18]): 2.8
- inhibition in vivo at 1 mg/kg (Mus musculus [19]): 66%
- inhibition in vivo at 1 mg/kg (Mus musculus [20]): 76%
- Activity (Mus musculus [13]): tde

SMILES: Fc1ccc(-c2c3nc(c(-c4ccc(F)cc4)c4ccc([nH]4)c(-c4ccc(F)cc4)c4nc(c(-c5ccc(F)cc5)c5ccc2[nH]5)C=C4)C=C3)cc1
- inhibition in vivo at 200 mg/kg (Mus musculus [1]): 30%
- inhibition in vivo at 200 mg/kg (Mus musculus [2]): 20%
- inhibition in vivo at 200 mg/kg (Mus musculus [6]): 41%
- inhibition in vivo at 200 mg/kg (Mus musculus [7]): 44%
- EC50 [8]: 395 µM
- inhibition in vivo at 100 mg/kg (Mus musculus [9]): 20%
- Activity (Mus musculus [10]): Active
- inhibition (INH) (Mus musculus [11]): 38%
- inhibition in vivo at 200 mg/kg (Mus musculus [12]): 36%
- Activity (Mus musculus [13]): tde

SMILES: COc1ccc2c(c1)c(CC(=O)O)c(C)n2C(=O)c1ccc(Cl)cc1 [INDOMETHACIN]
- inhibition (INH) (Mus musculus [11]): 76%
- inhibition in vivo at 8 mg/kg (Mus musculus [21]): 55%
- inhibition (Mus musculus [22]): Dose-dependent effect
